Assay results as given in US8598154B2 (Corcept Therapeutics, Inc., priority 2010, dated 2013).

How the values were obtained:
[1] = target: T1, Human Recombinant Glucocorticoid Receptor (Homo sapiens, UniProt P04150); experiment: Glucocorticoid receptor binding displacement assay with 3H-dexamethasone; details: displacement of 2.5 nM 3H-dexamethasone; Ki from IC50 by Cheng-Prusoff; read-out: GR Binding Ki
T1 construct: This GR was a full-length steroid hormone receptor likely to be associated with heat-shock and other endogenous proteins; host or cells: baculovirus-infected insect cells
T1 sequence (P04150 1-777): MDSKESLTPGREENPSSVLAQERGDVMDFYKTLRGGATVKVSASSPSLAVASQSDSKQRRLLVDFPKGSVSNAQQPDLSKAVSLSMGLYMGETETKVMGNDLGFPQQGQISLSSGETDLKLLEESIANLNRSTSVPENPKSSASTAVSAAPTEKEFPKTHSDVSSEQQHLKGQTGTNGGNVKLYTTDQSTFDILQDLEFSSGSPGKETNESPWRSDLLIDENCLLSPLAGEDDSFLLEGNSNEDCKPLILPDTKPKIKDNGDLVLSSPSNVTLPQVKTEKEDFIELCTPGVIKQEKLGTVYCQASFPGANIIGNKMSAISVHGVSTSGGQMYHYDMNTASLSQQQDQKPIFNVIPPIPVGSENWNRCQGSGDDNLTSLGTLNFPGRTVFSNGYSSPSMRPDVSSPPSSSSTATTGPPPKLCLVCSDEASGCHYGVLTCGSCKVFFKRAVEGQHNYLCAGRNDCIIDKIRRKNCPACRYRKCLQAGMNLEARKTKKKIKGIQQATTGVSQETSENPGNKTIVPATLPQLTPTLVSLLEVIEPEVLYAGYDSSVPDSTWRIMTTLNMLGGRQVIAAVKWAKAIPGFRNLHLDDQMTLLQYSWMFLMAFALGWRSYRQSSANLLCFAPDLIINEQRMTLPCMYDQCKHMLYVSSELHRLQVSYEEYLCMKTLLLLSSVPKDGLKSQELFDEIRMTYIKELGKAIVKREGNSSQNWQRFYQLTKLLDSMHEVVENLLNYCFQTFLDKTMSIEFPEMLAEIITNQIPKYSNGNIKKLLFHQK

[2] = target: T2, glucocorticoid receptors (GR) in SW1353/MMTV-5 cells (Homo sapiens, UniProt P04150); experiment: GR functional assay using SW1353/MMTV-5 cells (MMTV-luciferase reporter); format: cell-based
T2 construct: contains endogenous glucocorticoid receptors; endogenous in cells; host or cells: SW1353/MMTV-5 (human chondrosarcoma, stably transfected with the pMAMneo-Luc reporter only)
T2 sequence (P04150 1-777): T1 sequence (P04150 1-777)
Procedure, shortened: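 Human chondrosarcoma line stably carrying firefly luciferase under an MMTV LTR glucocorticoid-responsive element, with endogenous GR. Cells were plated in 96-well plates and held 24 hrs in geneticin-free medium without CO2.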

Row | SMILES | Ki [1] | Ki [2]
1 | O=C(OCC1CC(O)C1)[C@]12Cc3cnn(-c4ccc(F)cc4)c3C=C1CCN(S(=O)(=O)c1ccc(N3CCOCC3)nc1)C2 (stereo partly drawn) [Example 53, (R)-1-(4-Fluorophenyl)-6-(6-morpholin-4-yl-pyridine-3-sulfonyl]-1,4,5,6,7,8-hexahydro-1,2,6-triaza-cyclopenta[b]naphthalene-4a-carboxylic acid 3-hydroxycyclobutylmethyl ester] | > 1 nM | 10 to 50 nM
2 | CC1(COC(=O)[C@]23Cc4cnn(-c5ccc(F)cc5)c4C=C2CCN(S(=O)(=O)c2ccc(N4CCOCC4)nc2)C3)COC1 [Example 54, (R)-1-(4-Fluorophenyl)-6-(6-morpholin-4-yl-pyridine-3-sulfonyl]-1,4,5,6,7,8-hexahydro-1,2,6-triaza-cyclopenta[b]naphthalene-4a-carboxylic acid 3-methyloxetan-3-ylmethyl ester] | > 1 nM | > 50 nM
3 | O=C(OCCO)[C@]12Cc3cnn(-c4ccc(F)cc4)c3C=C1CCN(S(=O)(=O)c1ccc(N3CCOCC3)nc1)C2 [Example 55, (R)-1-(4-Fluorophenyl)-6-(6-morpholin-4-yl-pyridine-3-sulfonyl]-1,4,5,6,7,8-hexahydro-1,2,6-triaza-cyclopenta[b]naphthalene-4a-carboxylic acid 2-hydroxethyl ester] | > 1 nM | > 50 nM
4 | CN(C)CCOC(=O)[C@]12Cc3cnn(-c4ccc(F)cc4)c3C=C1CCN(S(=O)(=O)c1ccc(N3CCOCC3)nc1)C2 [Example 56, (R)-1-(4-Fluorophenyl)-6-(6-morpholin-4-yl-pyridine-3-sulfonyl]-1,4,5,6,7,8-hexahydro-1,2,6-triaza-cyclopenta[b]naphthalene-4a-carboxylic acid 2-dimethylaminoethyl ester] | > 1 nM | > 50 nM
5 | Cc1cc(COC(=O)[C@]23Cc4cnn(-c5ccc(F)cc5)c4C=C2CCN(S(=O)(=O)c2ccc(N4CCOCC4)nc2)C3)no1 [Example 57, (R)-1-(4-Fluorophenyl)-6-(6-morpholin-4-yl-pyridine-3-sulfonyl]-1,4,5,6,7,8-hexahydro-1,2,6-triaza-cyclopenta[b]naphthalene-4a-carboxylic acid 5-methylisoxazol-3-ylmethyl ester] | 0.5 to 1 nM | 10 to 50 nM
6 | O=C(OCC1CC1)[C@]12Cc3cnn(-c4ccc(F)cc4)c3C=C1CCN(S(=O)(=O)c1ccc(C(F)(F)F)nc1)C2 [Example 58] | 0.5 to 1 nM | < 10 nM
7 | COc1ccc(S(=O)(=O)N2CCC3=Cc4c(cnn4-c4ccc(F)cc4)C[C@]3(C(=O)OCC3CCC3)C2)cn1 [Example 59, (R)-1-(4-Fluorophenyl)-6-(6-methoxypyridine-3-sulfonyl)-1,4,5,6,7,8-hexahydro-1,2,6-triaza-cyclopenta[b]naphthalene-4a-carboxylic acid cyclobutylmethyl ester] | 0.5 to 1 nM | < 10 nM
8 | Cc1cc(COC(=O)[C@]23Cc4cnn(-c5ccc(F)cc5)c4C=C2CCN(S(=O)(=O)c2ccc(N4CC[C@@H](F)C4)nc2)C3)no1 [Example 60, (R)-1-(4-Fluorophenyl)-6-[6-((R)-3-fluoropyrrolidin-1-yl)-pyridine-3-sulfonyl]-1,4,5,6,7,8-hexahydro-1,2,6-triaza-cyclopenta[b]naphthalene-4a-carboxylic acid 5-methylisoxazol-3-ylmethyl ester] | 0.5 to 1 nM | 10 to 50 nM
9 | O=C(OCC1CC(O)C1)[C@]12Cc3cnn(-c4ccc(F)cc4)c3C=C1CCN(S(=O)(=O)c1ccc(N3CC[C@@H](F)C3)nc1)C2 (stereo partly drawn) [Example 61, (R)-1-(4-Fluorophenyl)-6-[6-((R)-3-fluoropyrrolidin-1-yl)-pyridine-3-sulfonyl]-1,4,5,6,7,8-hexahydro-1,2,6-triaza-cyclopenta[b]naphthalene-4a-carboxylic acid 3-hydroxy cyclobutylmethyl ester] | > 1 nM | 10 to 50 nM
10 | O=S(=O)(c1ccc(N2CCOCC2)nc1)N1CCC2=Cc3c(cnn3-c3ccc(F)cc3)C[C@]2(CN2CC[C@H](O)C2)C1 [Example 62, (S)-1-[(S)-1-(4-Fluorophenyl)-6-[6-morpholin-4-yl-pyridine-3-sulfonyl)-1,4,5,6,7,8-hexahydro-1,2,6-triaza-cyclopenta[b]naphthalene-4a-ylmethyl]-pyrrolidin-3-ol] | > 1 nM | > 50 nM
11 | O=S(=O)(c1ccc(N2CCOCC2)nc1)N1CCC2=Cc3c(cnn3-c3ccc(F)cc3)C[C@]2(CN2CC[C@@H](O)C2)C1 [Example 63, (R)-1-[(S)-1-(4-Fluorophenyl)-6-[6-morpholin-4-yl-pyridine-3-sulfonyl)-1,4,5,6,7,8-hexahydro-1,2,6-triaza-cyclopenta[b]naphthalene-4a-ylmethyl]-pyrrolidin-3-ol] | > 1 nM | 10 to 50 nM
12 | COCCOC[C@]12Cc3cnn(-c4ccc(F)cc4)c3C=C1CCN(S(=O)(=O)c1ccc(N3CCOCC3)nc1)C2 [Example 64, (R)-1-(4-Fluoro-phenyl)-4a-(2-methoxy-ethoxymethyl)-6-(6-morpholin-4-yl-pyridine-3-sulfonyl)-4,4a,5,6,7,8-hexahydro-1H-1,2,6-traza-cyclopenta[b]naphthalene] | 0.5 to 1 nM | < 10 nM
